Drawing on ChEMBL document CHEMBL1126747, “Multiple copy simultaneous search and construction of ligands in binding sites: application to inhibitors of HIV-1 aspartic proteinase” (J Med Chem, 1993), this text covers Ki for two compounds.

pKi: −log10 of the molar value. Starred links: 1 amine or outer side, 2 acyl side, 3 side chain; linkers in the order of their positions; H or OH if unused. Non-standard residues stand in square brackets, D forms with d. Residues, ends and D or L forms follow the SMILES beside them. X1 = CC(C)C[C@H](N[*:1])[C@@H](O)C[C@H](C(=O)[*:2])C(C)C Where only a bound is given, the exact number is not on record here.

The target in this test is Human immunodeficiency virus type 1 protease (Human immunodeficiency virus 1, UniProt Q72874). As to the kind of experiment: Binding affinity against HIV-1 aspartic proteinase was determined.

The pKi is the negative decadic logarithm of the Ki, by convention in mol/L. Read a high pKi as a low Ki. As for `CC[C@H](C)[C@H](NC(=O)[C@@H](C[C@H](O)[C@H](CC(C)C)NC(=O)[C@H](CC(N)=O)NC(=O)[C@H](CCC(N)=O)NC(=O)[C@H](CO)NC(=O)[C@@H](N)C(C)C)C(C)C)C(=O)N[C@H](C(=O)O)C(C)C` (H-VSQN[X1]IV-OH), the pKi is above 9.00. `CCCC[C@@H](CN[C@@H](CCCC)C(=O)N[C@@H](CCC(N)=O)C(=O)N[C@@H](CCCNC(=N)N)C(N)=O)NC(=O)[C@@H](NC(=O)[C@@H](NC(C)=O)[C@@H](C)O)[C@@H](C)CC` gave a negative-log Ki (pKi) of 6.11.
